Data reported in PubChem BioAssay (NCI).
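48-hour exposure; five concentrations; linearly interpolated endpoints. Here, GI50 denotes the concentration required for 50% inhibition of growth. Definition used: TGI = concentration required for complete inhibition of growth.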

How the values were obtained:
Test in all cases: inhibition of tumour cell growth, NCI panel, 48 h
[1] = system: SK-MEL-5 melanoma
[2] = system: ACHN renal
[3] = system: SW-620 colon
[4] = system: SNB-75 CNS
[5] = system: M14 melanoma
[6] = system: DMS 273 small cell lung
[7] = system: OVCAR-8 ovarian
[8] = system: RPMI-8226 leukemia
[9] = system: 786-0 renal
[10] = system: SF-295 CNS
[11] = system: LXFL 529 NSCLC
[12] = system: HOP-18 NSCLC
[13] = system: SN12C renal
[14] = system: OVCAR-4 ovarian
[15] = system: EKVX NSCLC
[16] = system: RXF 393 renal
[17] = system: MALME-3M melanoma
[18] = system: SR leukemia
[19] = system: HCT-116 colon
[20] = system: SK-MEL-28 melanoma
[21] = system: K-562 leukemia
[22] = system: CAKI-1 renal
[23] = system: TK-10 renal
[24] = system: OVCAR-5 ovarian
[25] = system: M19-MEL melanoma
[26] = system: A549 NSCLC
[27] = system: UO-31 renal
[28] = system: SK-MEL-2 melanoma
[29] = system: OVCAR-3 ovarian
[30] = system: SK-OV-3 ovarian
[31] = system: MOLT-4 leukemia
[32] = system: IGROV1 ovarian
[33] = system: NCI-H460 lung
[34] = system: KM12 colon
[35] = system: DLD-1 colon
[36] = system: XF 498 CNS
[37] = system: NCI-H23 lung
[38] = system: HT29 colon
[39] = system: UACC-62 melanoma
[40] = system: SF-539 CNS
[41] = system: SNB-78 CNS
[42] = system: KM20L2 colon
[43] = system: NCI-H226 lung
[44] = system: SNB-19 CNS
[45] = system: UACC-257 melanoma
[46] = system: HCT-15 colon
[47] = system: COLO 205 colon
[48] = system: U251 CNS
[49] = system: HL-60(TB) leukemia
[50] = system: HCC-2998 colon
[51] = system: LOX IMVI melanoma
[52] = system: HOP-92 NSCLC
[53] = system: CCRF-CEM leukemia
[54] = system: HOP-62 NSCLC
[55] = system: NCI-H522 lung
[56] = system: A498 renal
[57] = system: SF-268 CNS

Compound: C[N+](C)(C)CC1CCCC(C[N+](C)(C)C)C1=NO (stereo unspecified)
- TGI [1]: > 100 µM
- TGI [2]: > 100 µM
- TGI [3]: > 100 µM
- TGI [4]: > 100 µM
- TGI [5]: > 100 µM
- TGI [6]: > 100 µM
- TGI [7]: > 100 µM
- TGI [8]: > 100 µM
- TGI [9]: > 100 µM
- TGI [10]: > 100 µM
- TGI [11]: > 100 µM
- TGI [12]: > 100 µM
- TGI [13]: > 100 µM
- TGI [14]: > 100 µM
- TGI [15]: > 100 µM
- TGI [16]: > 100 µM
- TGI [17]: > 100 µM
- TGI [18]: > 100 µM
- TGI [19]: > 100 µM
- TGI [20]: > 100 µM
- TGI [21]: > 100 µM
- TGI [22]: > 100 µM
- TGI [23]: > 100 µM
- TGI [24]: > 100 µM
- TGI [25]: > 100 µM
- TGI [26]: > 100 µM
- TGI [27]: > 100 µM
- TGI [28]: > 100 µM
- TGI [29]: > 100 µM
- TGI [30]: > 100 µM
- TGI [31]: > 100 µM
- TGI [32]: > 100 µM
- TGI [33]: > 100 µM
- TGI [34]: > 100 µM
- TGI [35]: > 100 µM
- TGI [36]: > 100 µM
- TGI [37]: > 100 µM
- TGI [38]: > 100 µM
- TGI [39]: > 100 µM
- TGI [40]: > 100 µM
- TGI [41]: > 100 µM
- TGI [42]: > 100 µM
- TGI [43]: > 100 µM
- TGI [44]: > 100 µM
- TGI [45]: > 100 µM
- TGI [46]: > 100 µM
- TGI [47]: > 100 µM
- TGI [48]: > 100 µM

Compound: N[C@@H]1CCCC[C@@H]1N.O=P([O-])([O-])CNCP(=O)([O-])[O-].[Pt+2]
- GI50 [1]: > 100 µM
- TGI [1]: > 100 µM
- GI50 [2]: > 100 µM
- TGI [2]: > 100 µM
- GI50 [3]: > 100 µM
- TGI [3]: > 100 µM
- GI50 [4]: > 100 µM
- TGI [4]: > 100 µM
- GI50 [5]: > 100 µM
- TGI [5]: > 100 µM
- GI50 [6]: > 100 µM
- TGI [6]: > 100 µM
- GI50 [7]: > 100 µM
- TGI [7]: > 100 µM
- GI50 [8]: > 100 µM
- TGI [8]: > 100 µM
- GI50 [9]: > 100 µM
- TGI [9]: > 100 µM
- GI50 [49]: > 100 µM
- TGI [49]: > 100 µM
- GI50 [10]: > 100 µM
- TGI [10]: > 100 µM
- GI50 [11]: > 100 µM
- TGI [11]: > 100 µM
- GI50 [12]: > 100 µM
- TGI [12]: > 100 µM
- GI50 [13]: > 100 µM
- TGI [13]: > 100 µM
- GI50 [50]: > 100 µM
- TGI [50]: > 100 µM
- GI50 [14]: > 100 µM
- TGI [14]: > 100 µM
- GI50 [16]: > 100 µM
- TGI [16]: > 100 µM
- GI50 [17]: > 100 µM
- TGI [17]: > 100 µM
- GI50 [19]: > 100 µM
- TGI [19]: > 100 µM
- GI50 [51]: > 100 µM
- TGI [51]: > 100 µM
- GI50 [20]: > 100 µM
- TGI [20]: > 100 µM
- GI50 [21]: > 100 µM
- TGI [21]: > 100 µM
- GI50 [22]: > 100 µM
- TGI [22]: > 100 µM
- GI50 [23]: > 100 µM
- TGI [23]: > 100 µM
- GI50 [25]: > 100 µM
- TGI [25]: > 100 µM
- GI50 [26]: > 100 µM
- TGI [26]: > 100 µM
- GI50 [27]: > 100 µM
- TGI [27]: > 100 µM
- GI50 [52]: > 100 µM
- TGI [52]: > 100 µM
- GI50 [28]: > 100 µM
- TGI [28]: > 100 µM
- GI50 [53]: > 100 µM
- TGI [53]: > 100 µM
- GI50 [29]: > 100 µM
- TGI [29]: > 100 µM
- GI50 [30]: > 100 µM
- TGI [30]: > 100 µM
- GI50 [31]: > 100 µM
- TGI [31]: > 100 µM
- GI50 [32]: > 100 µM
- TGI [32]: > 100 µM
- GI50 [33]: > 100 µM
- TGI [33]: > 100 µM
- GI50 [54]: > 100 µM
- TGI [54]: > 100 µM
- GI50 [34]: > 100 µM
- TGI [34]: > 100 µM
- GI50 [35]: > 100 µM
- TGI [35]: > 100 µM
- GI50 [36]: > 100 µM
- TGI [36]: > 100 µM
- GI50 [37]: > 100 µM
- TGI [37]: > 100 µM
- GI50 [38]: > 100 µM
- TGI [38]: > 100 µM
- GI50 [55]: > 100 µM
- TGI [55]: > 100 µM
- GI50 [56]: > 100 µM
- TGI [56]: > 100 µM
- GI50 [39]: > 100 µM
- TGI [39]: > 100 µM
- GI50 [40]: > 100 µM
- TGI [40]: > 100 µM
- GI50 [41]: > 100 µM
- TGI [41]: > 100 µM
- GI50 [42]: > 100 µM
- TGI [42]: > 100 µM
- GI50 [43]: > 100 µM
- TGI [43]: > 100 µM
- GI50 [57]: > 100 µM
- TGI [57]: > 100 µM
- GI50 [44]: > 100 µM
- TGI [44]: > 100 µM
- GI50 [45]: > 100 µM
- TGI [45]: > 100 µM
- GI50 [46]: > 100 µM
- TGI [46]: > 100 µM
- GI50 [47]: > 100 µM
- TGI [47]: > 100 µM
- GI50 [48]: > 100 µM
- TGI [48]: > 100 µM
